{"source": "patent EP1278521B1", "about": "“N-HETEROCYCLIC SUBSTITUTED SALICYLATES FOR THE TREATMENT OF CANCER” (priority 2000, dated 2001)", "key": {"[1]": {"details": "cited from earlier work"}, "[2]": {"system": "Nb2-SFJCD1 rat lymphoma cells", "experiment": "Culture growth inhibition assay in Nb2-SFJCD1 cultures", "format": "cell-based", "details": "for IC50: read-out: IC50 (mM) Average ± S.D.; for growth-inhibitory effect in the presence of elevated cystine: cystine at ca. 3-fold elevated levels in the culture medium, Fig. 5", "description": "Solubilization of salicylhydroxamic acid and sulfasalazine involved use of 0.1 N NaOH and adjustment of the pH to 7.5-7.7 using 1 N HCl, which was added slowly to the solution swirled by a magnetic stirrer. […] All drugs were obtained from Sigma-Aldrich Canada Ltd., Oakville, ON, Canada. Drug solutions and vehicles (controls) were prepared and assayed under subdued light conditions.\n(§1) Nb2 lymphoma is of a pre-T cell origin. The parental line (Nb2 U17) is non-metastatic as subcutaneous implants whereas subline Nb2-SFJCD1 is highly metastatic. Nb2-SFJCD1 cultures (doubling time = 12 - 13 hr) were maintained in Fischer's medium (Sigma-Aldrich), supplemented with 10.0 % horse gelding serum (lactogen-deficient; one batch, ICN Biomedicals, Inc., Auroro, OH), penicillin (50 U/ml) and streptomycin (50 µg/ml). In this medium the cells grow as clumps which can be readily dispersed. Nb2 lymphoma cell lines are used by a number of laboratories; the Nb2-11 subline, is available from the European Collection of Animal Cell Cultures (ECACC) in Salisbury, U.K. The Nb2-U17 and Nb2-SJFCD1 cell lines are available from Dr. Peter W. Gout, B.C. Cancer Research Centre, Vancouver, B.C., Canada.\nNb2-SFTCD1 cells from log phase cultures were centrifaged (3.5 min at 350xg) and gently resuspended in fresh Fisher's medium containing 10% horse gelding serum. Aliquots (1.80 ml) were distributed in 12-well tissue culture plates (Linbro, Flow Laboratories, Mississauga, ON, Canada) and preincubated for 3 - 5 hours at 37°C in a water-saturated 5% CO2/air atmosphere. Solutions of the drugs (200 µl portions) were then added to the cultures for a 45 hour incubation (Cin = 1.0x10^5 cells/ml). Cell populations were determined using an electronic counter (Coulter Electronics, Hialeah, FL)."}, "MCF-7 cells": {"system": "MCF-7 cells", "experiment": "Cell proliferation of MCF-7 breast carcinoma cells", "format": "cell-based, human", "details": "10 mM", "text": "(§2) The effect of sulfasalazine on cell proliferation was subsequently assessed. […] Thus, the xc^- transporter is a target for the anti-cancer actions of sulfasalazine in human breast carcinoma."}, "Nb2-U17 tumor transplant": {"system": "Nb2-U17 tumor transplant", "experiment": "Assay of tumor growth inhibition in rats", "format": "in vivo, Nb rats", "details": "b.i.d., 7-day period", "description": "(§3) A colony of Nb rats is maintained in the British Columbia Cancer Research Centre Vancouver, B.C., Canada. Approximately equal portions of minced Nb2-U17 tumor tissue, developed subcutaneously in a rat following injection of cultured Nb2-U17 cells, were injected by trocar subcutaneously in the nape of the neck of groups of male Nb rats (one injection per rat), that had been lightly anesthetized with isoflurane (Abbott Laboratories Ltd., Montreal, Canada). […] 2 % CMC or saline were used for controls. Drug preparation and administration were carried out under subdued light conditions. Food and water were provided ad libitum. Tumor size, body weight and general health of the rats were monitored twice a day. Tumor size was measured using calipers and expressed in grams using the formula: π/6 x length x width x height in cm. […] On necropsy the animals were examined for evidence of metastatic spread with particular attention to tissues such as kidneys, liver and spleen, the target tissues of metastatic Nb2 lymphoma cells. Tissue sections were taken for histologic analysis. Non-tumor-bearing animals were used to establish maximally tolerated dosages."}, "MDA-MB-231 cells": {"system": "MDA-MB-231 cells", "experiment": "Cell proliferation of MDA-MB-231 breast carcinoma cells", "format": "cell-based, human", "text": "as §2"}, "DoHH2 cells": {"system": "DoHH2 cells", "experiment": "Culture growth inhibition assay using DoHH2 cells", "format": "cell-based, human", "details": "1.5% FBS, 0.05 mM, at hr 45, Fig. 4", "description": "as §1, with “Canada. DoHH2 cell suspension cultures (doubling time ca. 20 hours) were maintained in RPMI-1640 medium (Stem Cell Technology, Vancouver, B.C., Canada) containing fetal bovine serum (5%), horse serum (5%) and antibiotics.” for “Canada.”\nAssays using DoHH2 cells were similarly performed, using their maintenance medium; Cin = ca. 1.5x10^5 cells/ml (see: Kluin-Nelemans, H.C. et al. (1991) Leukemia 5:221.)"}, "[3]": {"details": "rat, in vivo", "description": "as §3"}, "[4]": {"details": "as reported in the literature for patients/controls undergoing treatment with the drugs"}, "[5]": {"details": "Rattus norvegicus, 45 h at 37°C, Fischer's medium containing 10.0% horse gelding serum"}}, "note": "Entries after “also recorded” stand apart in the source; their conditions may differ. Read-outs that look alike come from different tables or passages of the source.", "data": [{"smiles": "Nc1ccc(O)c(C(=O)O)c1", "note": "[5-aminosalicylic acid]", "values": [{"measurement": "Therapeutic drug levels in plasma", "setting": "[1]; [4]", "value": "ca. 0.01 mM"}]}, {"smiles": "CC(C)Cc1ccc(C(C)C(=O)O)cc1", "note": "(stereo not drawn) [Ibuprofen]", "values": [{"measurement": "inhibition at 100 µM", "setting": "[2]; Rattus norvegicus, 0.1 mM (therapeutic concentration), Fig. 1, read-out: inhibited the growth of the Nb2 cell cultures", "value": "5 to 10", "unit": "%"}, {"measurement": "IC50", "setting": "[2]; [5]", "value": "0.43 ± 0.01", "unit": "mM"}, {"measurement": "Therapeutic drug levels in plasma", "setting": "[1]; in vivo", "value": "0.05 to 0.1", "unit": "mM"}]}, {"smiles": "N[C@@H](CCC(=O)O)C(=O)[O-].[Na+]", "note": "[Monosodium glutamate]", "values": [{"measurement": "inhibition of proliferation", "setting": "MCF-7 cells", "value": "to an extent similar to that observed for sulfasalazine"}, {"measurement": "inhibition of proliferation with addition of 2-ME", "setting": "MCF-7 cells; 2-ME added to the cultures", "value": "completely negated this effect"}]}, {"smiles": "CN1C(C(=O)Nc2ccccn2)=C(O)c2ccccc2S1(=O)=O", "note": "[Piroxicam]", "values": [{"measurement": "inhibition at 30 µM", "setting": "[2]; Rattus norvegicus, 0.03 mM (therapeutic concentration), Fig. 1, read-out: inhibited the growth of the Nb2 cell cultures", "value": "5 to 10", "unit": "%"}, {"measurement": "IC50", "setting": "[2]; [5]", "value": "0.3 ± 0.02", "unit": "mM"}, {"measurement": "Therapeutic drug levels in plasma", "setting": "[1]; in vivo", "value": "0.015 to 0.03", "unit": "mM"}]}, {"smiles": "NC(=O)c1ccccc1O", "note": "[Salicylamide]", "values": [{"measurement": "IC50", "setting": "[2]; [5]", "value": "1.34 ± 0.13", "unit": "mM"}]}, {"smiles": "O=C([O-])c1ccccc1O.[Na+]", "note": "[Salicylate, sodium, sodium salicylate]", "values": [{"measurement": "IC50", "setting": "[2]; Rattus norvegicus, 45 h", "value": "1.82 ± 0.12", "unit": "mM"}, {"measurement": "inhibition at 3000 µM", "setting": "[2]; Rattus norvegicus, read-out: inhibited the growth of the Nb2 cell cultures", "value": "~70", "unit": "%"}, {"measurement": "growth-inhibitory effect in the presence of elevated cystine", "setting": "[2]", "value": "only marginally affected"}, {"measurement": "tumor growth inhibition", "setting": "Nb2-U17 tumor transplant; i.p. 150 mg/kg body wt, 150 mg/kg", "value": "did not inhibit tumor growth; also recorded: had no effect"}, {"measurement": "Therapeutic drug levels in plasma", "setting": "[1]; [4]", "value": "1 to 3", "unit": "mM"}]}, {"smiles": "O=C(O)c1cc(/N=N/c2ccc(S(=O)(=O)Nc3ccccn3)cc2)ccc1O", "note": "[Sulfasalazine]", "values": [{"measurement": "growth arrest", "setting": "[2]; 0.15 mM, 45 hour experiment", "value": "only partially arrested growth"}, {"measurement": "IC50", "setting": "[2]; [5]", "value": "~0.17", "unit": "mM"}, {"measurement": "growth-inhibitory effect in the presence of elevated cystine", "setting": "[2]", "value": "substantially reduced"}, {"measurement": "growth-inhibitory activity", "setting": "[2]; range 0.1 - 0.3 mM, Fig. 2", "value": "highly potent"}, {"measurement": "lymphoma growth-inhibitory effect", "setting": "Nb2-U17 tumor transplant; oral administration, 500 mg/kg body wt", "value": "only minor lymphoma growth-inhibitory effect"}, {"measurement": "antagonism of the inhibitory actions by 2-ME", "setting": "MDA-MB-231 cells; 2-ME (60µM)", "value": "completely antagonized"}, {"measurement": "IC50", "setting": "MDA-MB-231 cells; Homo sapiens, MDA-MB-231", "value": "300 ± 5", "unit": "µM"}, {"measurement": "Therapeutic drug levels in plasma", "setting": "[1]; [4]", "value": "0.08 to 0.2", "unit": "mM"}, {"measurement": "cell lysis", "setting": "DoHH2 cells", "value": "extensive cell lysis"}, {"measurement": "side effects (general health and appearance)", "setting": "[3]", "value": "no major side effects"}, {"measurement": "minor side effect", "setting": "[3]; ip", "value": "thickening of tissue at the site of the injections"}]}, {"smiles": "Nc1ccc(S(=O)(=O)Nc2ccccn2)cc1", "note": "[sulfapyridine]", "values": [{"measurement": "Therapeutic drug levels in plasma", "setting": "[1]; [4]", "value": "0.08 to 0.2", "unit": "mM"}]}]}
